test system: Salmonella typhimurium; assay: Comparative mutagenic activity toward Salmonella Typhimurium strain TA-100 at concentration of 10 nmol/plate; type: functional, Salmonella enterica subsp. enterica serovar Typhimurium

Going from `CC(=O)Nc1ccc(/C=C/c2ccccc2)cc1` to `CC(=O)N(O)c1ccc(/C=C/c2ccccc2)cc1`, the Revertants/plate rises from 385 to 1218.

Compared with `CC(=O)N(O)c1ccc(/C=C/c2ccc(Cl)cc2)cc1`, `CC(=O)N(O)c1ccc(/C=C/c2ccc(Br)cc2)cc1` is higher in Revertants/plate: 356 for the first, 374 for the second.

Going from `CC(=O)N(O)c1ccc(/C=C/c2ccc(F)cc2)cc1` to `CC(=O)Nc1ccc(/C=C/c2ccc(F)cc2)cc1`, the Revertants/plate falls from 825 to 632.

Compared with `CC(=O)Nc1ccc(/C=C/c2ccc(Cl)cc2)cc1`, `CC(=O)Nc1ccc(/C=C/c2ccc(Br)cc2)cc1` is lower in Revertants/plate: 382 for the first, 211 for the second.
